Experimental data: the supplement of paper PMC10307832

Legend:
Test in all cases: relative viability (nuclei count vs DMSO), 5 days (fraction); higher = more cells survive
[1] = compound: CC(C)N(CCCNC(=O)Nc1ccc(C(C)(C)C)cc1)C[C@H]1O[C@@H](n2ccc3c(N)ncnc32)[C@H](O)[C@@H]1O + COc1cccc2cc(-c3nc([C@H]4CC[C@H](C(=O)O)CC4)n4ncnc(N)c34)[nH]c12 [OSI-027] (partner 0.5 µM)
How it was run: (§1)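 Lung cancer cell lines were pin-tool dosed in 1536-well plates on the day after seeding, with either a lone drug or a fixed anchor-drug dose plus five library-drug doses (not always all listed) in √10 steps. Nuclei were counted on 4× images after 5 days. Relative viability is the ratio of treated-well to vehicle-well nuclei counts, with each value a median of duplicate plates.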

[2] = compound: CC(C)=CC[C@@H](O)C1=CC(=O)c2c(O)ccc(O)c2C1=O [Shikonin] + COc1cc2c(Oc3ccc(NC(=O)C4(C(=O)Nc5ccc(F)cc5)CC4)cc3F)ccnc2cc1OCCCN1CCOCC1 [Foretinib] (partner 0.25 µM)
How it was run: as §1

[3] = compound: CC(C)N(CCCNC(=O)Nc1ccc(C(C)(C)C)cc1)C[C@H]1O[C@@H](n2ccc3c(N)ncnc32)[C@H](O)[C@@H]1O + CS(=O)(=O)CCNCc1ccc(-c2ccc3ncnc(Nc4ccc(OCc5cccc(F)c5)c(Cl)c4)c3c2)o1 [Lapatinib] (partner 2 µM)
How it was run: as §1

[4] = compound: CC(C)N(CCCNC(=O)Nc1ccc(C(C)(C)C)cc1)C[C@H]1O[C@@H](n2ccc3c(N)ncnc32)[C@H](O)[C@@H]1O + Nc1nc2[nH]cc(CCc3ccc(C(=O)N[C@@H](CCC(=O)O)C(=O)O)cc3)c2c(=O)[nH]1 [Pemetrexed] (partner 0.2 µM)
How it was run: as §1

Row | Cell Line | relative viability ([1]; first compound 0.08 µM) | relative viability ([1]; first compound 0.253 µM) | relative viability ([1]; first compound 0.8 µM) | relative viability ([1]; first compound 2.53 µM) | relative viability ([1]; first compound 8 µM) | relative viability ([2]; first compound 0.01 µM) | relative viability ([2]; first compound 0.1 µM) | relative viability ([2]; first compound 0.3162 µM) | relative viability ([2]; first compound 1 µM) | relative viability ([3]; first compound 0.08 µM) | relative viability ([3]; first compound 0.253 µM) | relative viability ([3]; first compound 0.8 µM) | relative viability ([3]; first compound 2.53 µM) | relative viability ([3]; first compound 8 µM) | relative viability ([4]; first compound 0.08 µM) | relative viability ([4]; first compound 0.253 µM) | relative viability ([4]; first compound 0.8 µM) | relative viability ([4]; first compound 2.53 µM) | relative viability ([4]; first compound 8 µM)
1 | PC-14 | 0.826 | 0.802 | 0.786 | 0.872 | 0.745 | 0.914 | 1 | 1.15 | 1.09 | 0.287 | 0.284 | 0.355 | 0.332 | 0.316 | 0.149 | 0.171 | 0.138 | 0.141 | 0.163
2 | RERF-LC-KJ | 0.551 | 0.624 | 0.679 | 0.529 | 0.453 | 0.904 | 0.961 | 0.903 | 0.908 | 0.894 | 0.841 | 0.861 | 0.911 | 0.829 | 0.502 | 0.478 | 0.517 | 0.48 | 0.466
3 | SK-LU-1 | 0.372 | 0.424 | 0.352 | 0.405 | 0.338 | 0.869 | 0.907 | 0.863 | 0.788 | 0.892 | 0.887 | 0.989 | 1.13 | 0.748 | 1 | 1.01 | 1.04 | 0.983 | 0.915
4 | SK-MES-1 | 0.615 | 0.685 | 0.586 | 0.619 | 0.586 | 1.01 | 1.2 | 0.965 | 0.939 | 0.501 | 0.461 | 0.455 | 0.491 | 0.414 | 1.05 | 0.915 | 0.819 | 1.03 | 0.912
5 | SW 1573 | 0.501 | 0.679 | 0.635 | 0.683 | 0.705 | 0.929 | 0.894 | 1.13 | 0.765 | 1.05 | 1.09 | 1.09 | 1.05 | 1.16 | 0.88 | 0.804 | 0.829 | 0.832 | 0.778
